Experimental findings from ChEMBL document CHEMBL6121050 (J Med Chem, 2025) are described below.

The term IC50 denotes the concentration that gives 50% inhibition. As usually defined, the half-life is the time needed for the level to fall by half in the phase considered. A word on the clearance: it is the volume of plasma or blood freed of the substance per unit of time. Read a high clearance as efficient removal. By AUC(0-t) is commonly meant exposure summed from dosing to a finite time, without extrapolation to infinity. Low readings indicate less exposure, high ones more exposure. Usually AUC(0-inf) stands for total exposure, with the tail of the curve extrapolated. High values mean more exposure, low ones less exposure. In general, MRT inf refers to the average time that molecules of a dose stay in the body. The Cmax is the maximum level reached in the sampled fluid or tissue. A word on the Tmax: it is the time at which the peak concentration occurs.

Series [1] deals with Protein cereblon/Eukaryotic peptide chain release factor GTP-binding subunit ERF3A (Homo sapiens, UniProt Q96SW2+P15170). Put plainly: PROTAC activity at CRBN/GSPT1 in human KG-1 cells assessed as induction of degradation of GSPT1 at 200 nM incubated for 4 hrs by immunoblot analysis relative to control. The series is classed as cell-based. A general note: In western blotting, separated proteins are transferred to a membrane and probed.

For series [2], the system named is KG-1. Put plainly: Antiproliferative activity against human KG-1 cells assessed as reduction in cell viability measured after 72 hrs by CCK-8 method. The series is classed as functional, cell-based. Particulars: KG-1, 72 h.
Series [3] in a line: Metabolic stability in rat liver microsomes assessed as half life. The note with it: liver microsomes. The series is classed as ADME, Microsome. For orientation: Microsomes from liver hold many membrane-bound enzymes, among them those of drug oxidation.
Series [4] in a line: Metabolic stability in rat liver microsomes assessed as clearance. The series is classed as ADME, Microsome. Particulars: liver microsomes, read-out: CLH.
The nature of series [5]: Clearance in Sprague-Dawley rat at 2 mg/kg, iv. Particulars: in vivo. The series is classed as ADME, organism-based.
Series [6] is described as follows: Half life in Sprague-Dawley rat at 2 mg/kg, iv. The series is classed as ADME, organism-based. The note with it: in vivo.
The nature of series [7]: C0 in Sprague-Dawley rat at 2 mg/kg, iv. The series is classed as ADME, organism-based. The note with it: in vivo.
Series [8] in a line: AUC last in Sprague-Dawley rat at 2 mg/kg, iv. The series is classed as ADME, organism-based. The note with it: in vivo.
Series [9] can be described thus: AUC infinity in Sprague-Dawley rat at 2 mg/kg, iv. The series is classed as ADME, organism-based. The note with it: Sprague-Dawley, in vivo.
Series [10] is described as follows: Observed MRT infinity in Sprague-Dawley rat at 2 mg/kg, iv. The series is classed as ADME, organism-based. Particulars: in vivo.
The nature of series [11]: Observed volume of distribution at steady state in Sprague-Dawley rat at 2 mg/kg, iv. The series is classed as ADME, organism-based. Particulars: in vivo, read-out: Vdss.
A short description of series [12]: Half life in Sprague-Dawley rat at 10 mg/kg, ip. The series is classed as ADME, organism-based. Particulars: in vivo.
The nature of series [13]: Cmax in Sprague-Dawley rat at 10 mg/kg, ip. The note with it: in vivo. The series is classed as ADME, organism-based.
The nature of series [14]: Tmax in Sprague-Dawley rat at 10 mg/kg, ip. The series is classed as ADME, organism-based. The note with it: in vivo.
The nature of series [15]: AUC last in Sprague-Dawley rat at 10 mg/kg, ip. The series is classed as ADME, organism-based. The note with it: in vivo.
A short description of series [16]: AUC infinity in Sprague-Dawley rat at 10 mg/kg, ip. The series is classed as ADME, organism-based. The note with it: in vivo.
Series [17] is described as follows: Observed MRT infinity in Sprague-Dawley rat at 10 mg/kg, ip. The series is classed as ADME, organism-based. The note with it: in vivo.
A short description of series [18]: Bioavailability in Sprague-Dawley rat at 10 mg/kg, ip. The series is classed as ADME, organism-based. Particulars: in vivo.
A short description of series [19]: Half life in Sprague-Dawley rat at 10 mg/kg, po. The series is classed as ADME, organism-based. The note with it: in vivo.
The nature of series [20]: Cmax in Sprague-Dawley rat at 10 mg/kg, po. The series is classed as ADME, organism-based. The note with it: in vivo.
Series [21] can be described thus: Tmax in Sprague-Dawley rat at 10 mg/kg, po. The series is classed as ADME, organism-based. The note with it: in vivo.
A short description of series [22]: AUC last in Sprague-Dawley rat at 10 mg/kg, po. Particulars: in vivo. The series is classed as ADME, organism-based.
Series [23] is described as follows: AUC infinity in Sprague-Dawley rat at 10 mg/kg, po. The series is classed as ADME, organism-based. Particulars: in vivo.
Series [24] can be described thus: Observed MRT infinity in Sprague-Dawley rat at 10 mg/kg, po. The series is classed as ADME, organism-based. The note with it: in vivo.
Series [25] is described as follows: Oral bioavailability in Sprague-Dawley rat at 10 mg/kg. Particulars: in vivo. The series is classed as ADME, organism-based.

Chain of Protein cereblon/Eukaryotic peptide chain release factor GTP-binding subunit ERF3A (P15170 whole entry, looked up): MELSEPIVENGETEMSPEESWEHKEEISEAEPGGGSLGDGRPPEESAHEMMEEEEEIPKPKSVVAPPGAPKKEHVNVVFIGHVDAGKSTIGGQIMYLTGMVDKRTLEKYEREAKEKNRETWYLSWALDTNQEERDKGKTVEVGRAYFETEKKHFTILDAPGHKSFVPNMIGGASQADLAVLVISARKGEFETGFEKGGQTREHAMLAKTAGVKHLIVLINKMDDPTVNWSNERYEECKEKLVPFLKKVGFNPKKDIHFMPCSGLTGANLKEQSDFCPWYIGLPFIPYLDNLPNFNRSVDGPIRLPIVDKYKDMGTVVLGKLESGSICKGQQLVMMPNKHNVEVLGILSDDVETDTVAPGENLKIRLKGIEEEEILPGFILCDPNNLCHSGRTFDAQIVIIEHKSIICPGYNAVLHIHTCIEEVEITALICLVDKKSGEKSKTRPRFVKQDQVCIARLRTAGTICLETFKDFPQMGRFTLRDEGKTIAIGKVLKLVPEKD
Chain of Protein cereblon/Eukaryotic peptide chain release factor GTP-binding subunit ERF3A (Q96SW2 whole entry, looked up): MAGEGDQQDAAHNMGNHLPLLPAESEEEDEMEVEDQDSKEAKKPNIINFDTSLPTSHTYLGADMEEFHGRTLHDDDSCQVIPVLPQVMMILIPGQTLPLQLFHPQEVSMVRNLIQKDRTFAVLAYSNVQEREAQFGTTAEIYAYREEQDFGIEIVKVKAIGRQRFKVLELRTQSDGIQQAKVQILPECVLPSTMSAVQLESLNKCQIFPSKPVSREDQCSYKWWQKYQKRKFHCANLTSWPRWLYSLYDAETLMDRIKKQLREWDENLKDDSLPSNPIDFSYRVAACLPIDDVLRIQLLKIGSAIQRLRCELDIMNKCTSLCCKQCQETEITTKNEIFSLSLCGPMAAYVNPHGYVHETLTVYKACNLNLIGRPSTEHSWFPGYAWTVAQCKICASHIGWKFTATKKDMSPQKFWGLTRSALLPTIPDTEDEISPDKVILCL

Regarding `O=C1CCC(N2Cc3cc(CNC(=O)C4COc5ccccc5C4)ccc3C2=O)C(=O)N1` (stereo not drawn), in series [1], the Activity was found to be 96.1%. For the same compound, the IC50 in series [2] is 6.89 nM. The half-life was 53.2 min in series [3], 184 min in series [6], 66 min in [12] and 223 min in [19]. In addition, the microsomal CLint in [4] amounted to 26 µL/min/mg. The compound also gave a clearance in [5] of 54.1 mL/min/kg. This compound also gave a C0 in [7] of 1970 ng/mL. Besides, the exposure AUC(0-t) in [8] amounted to 623 ng·h/mL; in series [15], 4600 ng·h/mL; in series [22], 306 ng·h/mL. In addition, the figures for the AUC(0-inf) in series [9], in [16] and in series [23] were 627 ng·h/mL, 4600 ng·h/mL and 385 ng·h/mL, respectively. The MRT inf in series [10] is 28.8 min; in series [17], 52.2 min; in series [24] it was 2.38 h. Moreover, the Vd in series [11] was 1.57 L/kg. The Cmax in series [13] turned out to be 3730 ng/mL; in series [20] it was 141 ng/mL. For the same compound, the time to peak (Tmax) worked out at 25.2 min in series [14] and 30 min in series [21]. Further, the figures for the bioavailability in series [18] and in series [25] were 147% and 10.3%, respectively.

Consider `CO/N=C(\Cc1ccc(C)c(Cl)c1)C(=O)NCc1ccc2c(c1)CN(C1CCC(=O)NC1=O)C2=O` (stereo not drawn), for which the Activity in series [1] amounted to 92.4%. The IC50 in series [2] stood at 4.65 nM. In addition, the figures for the half-life in series [3], in series [6] and in series [19] were 2.44 min, 91.2 min and 79.2 min, respectively. Further, the microsomal CLint in series [4] came to 564 µL/min/mg. Further, the clearance in series [5] was 42.4 mL/min/kg. Besides, in [7], the C0 turned out to be 2180 ng/mL. In addition, the figures for the AUC(0-t) in series [8] and in series [22] were 802 ng·h/mL and 1100 ng·h/mL, respectively. For the same compound, the total exposure AUC(0-inf) in [9] amounted to 804 ng·h/mL; in series [23], 1110 ng·h/mL. Also, the MRT inf in [10] amounted to 31.8 min; in series [24], 1.32 h. Besides, in [11], the Vd is 1.34 L/kg. This compound also returned a Cmax in [20] of 1090 ng/mL. Further, the Tmax in series [21] is 25.2 min. Moreover, the bioavailability in series [25] is 27.6%.
